Measurements as given in ChEMBL document CHEMBL3885861, “Open TG-GATES”.

Species: Rattus norvegicus
Assay: Open TG-GATES - Regimen: Daily Repeat
Assay type: toxicity, organism-based, Sprague-Dawley
Parameters: regimen Daily Repeat, gender Male, age 6 weeks
Conditions: in vivo, po, route gavage; for APTT / Bas / Eos / Fbg / Hb / Ht / Lym / MCH / MCHC / MCV / Mono / Neu / PT / Plat / RBC / Ret / WBC: tissue Blood; for KIDNEY_L / KIDNEY_R / KIDNEY_TOTAL: tissue Kidney; for LIVER: tissue Liver; for A/G / ALP / ALT / AST / BUN / CRE / Ca / Cl / DBIL / GLC / IP / K / LDH / Na / PL / RALB / TBIL / TC / TG / TP / gamma-GTP: tissue Plasma
[1] = 30 mg/kg, 72 h, dose level Middle, time 3 day
[2] = 30 mg/kg, […], dose level Middle, time 7 day
[3] = 30 mg/kg, […], dose level Middle, time 14 day
[4] = 30 mg/kg, […], dose level Middle, time 28 day
[5] = 100 mg/kg, 72 h, dose level High, time 3 day
[6] = 100 mg/kg, […], dose level High, time 7 day
[7] = 100 mg/kg, […], dose level High, time 14 day
[8] = 100 mg/kg, […], dose level High, time 28 day

O=C1CN(/N=C/c2ccc([N+](=O)[O-])o2)C(=O)N1 [NITROFURANTOIN]
TERMINAL_BW [1]: 243.4 g
APTT [1]: 18.9 s
Bas [1]: 0%
Eos [1]: 1%
Fbg [1]: 216.2 mg/dL
Hb [1]: 13.6 g/dL
Ht [1]: 38.5%
Lym [1]: 79.4%
MCH [1]: 22 pg
MCHC [1]: 35.3%
MCV [1]: 62.3 fL
Mono [1]: 3.2%
Neu [1]: 15.4%
PT [1]: 12.6 s
Plat [1]: 121.2 x10_4/uL
RBC [1]: 617.8 x10_4/ul
Ret [1]: 6.3%
WBC [1]: 106.9 x10_2/uL
KIDNEY_L [1]: 1 g
KIDNEY_R [1]: 1 g
KIDNEY_TOTAL [1]: 2.1 g
LIVER [1]: 11.6 g
A/G [1]: 1.6
ALP [1]: 1110 IU/L
ALT [1]: 35.4 IU/L
AST [1]: 67.2 IU/L
BUN [1]: 14.2 mg/dL
CRE [1]: 0.4 mg/dL
Ca [1]: 10.6 mg/dL
Cl [1]: 101.6 meq/L
DBIL [1]: 0.094 mg/dL
GLC [1]: 210.8 mg/dL
IP [1]: 7.6 mg/dL
K [1]: 3.8 meq/L
LDH [1]: 212 IU/L
Na [1]: 140.4 meq/L
PL [1]: 140.2 mg/dL
RALB [1]: 3.5 g/dL
TBIL [1]: 0.1 mg/dL
TC [1]: 70.6 mg/dL
TG [1]: 80.2 mg/dL
TP [1]: 5.6 g/dL
gamma-GTP [1]: 1 IU/L
TERMINAL_BW [2]: 275.5 g
TERMINAL_BW [3]: 332 g
TERMINAL_BW [4]: 404.8 g
APTT [2]: 18.5 s
Bas [2]: 0%
Eos [2]: 1%
Fbg [2]: 223 mg/dL
Hb [2]: 13.5 g/dL
Ht [2]: 38%
Lym [2]: 81%
MCH [2]: 21.3 pg
MCHC [2]: 35.6%
MCV [2]: 60 fL
Mono [2]: 2.2%
Neu [2]: 15.4%
PT [2]: 12.6 s
Plat [2]: 125.8 x10_4/uL
RBC [2]: 634.2 x10_4/ul
Ret [2]: 5.3%
WBC [2]: 120.4 x10_2/uL
APTT [3]: 18.9 s
Bas [3]: 0%
Eos [3]: 0.8%
Fbg [3]: 224 mg/dL
Hb [3]: 14.4 g/dL
Ht [3]: 41.6%
Lym [3]: 79.4%
MCH [3]: 20.8 pg
MCHC [3]: 34.7%
MCV [3]: 60 fL
Mono [3]: 2.2%
Neu [3]: 16.8%
PT [3]: 12.4 s
Plat [3]: 120.1 x10_4/uL
RBC [3]: 693 x10_4/ul
Ret [3]: 4.7%
WBC [3]: 121.2 x10_2/uL
APTT [4]: 20.8 s
Bas [4]: 0%
Eos [4]: 1.2%
Fbg [4]: 215 mg/dL
Hb [4]: 15.3 g/dL
Ht [4]: 43.5%
Lym [4]: 80.8%
MCH [4]: 19.8 pg
MCHC [4]: 35.1%
MCV [4]: 56.5 fL
Mono [4]: 2.6%
Neu [4]: 14.2%
PT [4]: 12.7 s
Plat [4]: 118.4 x10_4/uL
RBC [4]: 770.8 x10_4/ul
Ret [4]: 2.9%
WBC [4]: 92.9 x10_2/uL
KIDNEY_L [2]: 1.1 g
KIDNEY_R [2]: 1.1 g
KIDNEY_TOTAL [2]: 2.2 g
KIDNEY_L [3]: 1.4 g
KIDNEY_R [3]: 1.4 g
KIDNEY_TOTAL [3]: 2.7 g
KIDNEY_L [4]: 1.5 g
KIDNEY_R [4]: 1.5 g
KIDNEY_TOTAL [4]: 3 g
LIVER [2]: 12.9 g
LIVER [3]: 14.8 g
LIVER [4]: 16.9 g
A/G [2]: 1.3
ALP [2]: 965 IU/L
ALT [2]: 30.6 IU/L
AST [2]: 57.6 IU/L
BUN [2]: 17.6 mg/dL
CRE [2]: 0.4 mg/dL
Ca [2]: 10.7 mg/dL
Cl [2]: 101.8 meq/L
DBIL [2]: 0.1 mg/dL
GLC [2]: 197.6 mg/dL
IP [2]: 7.1 mg/dL
K [2]: 4.2 meq/L
LDH [2]: 193 IU/L
Na [2]: 140.4 meq/L
PL [2]: 164 mg/dL
RALB [2]: 3.3 g/dL
TBIL [2]: 0.2 mg/dL
TC [2]: 80.6 mg/dL
TG [2]: 163.2 mg/dL
TP [2]: 5.8 g/dL
gamma-GTP [2]: 1.2 IU/L
A/G [3]: 1.4
ALP [3]: 790.8 IU/L
ALT [3]: 33.2 IU/L
AST [3]: 58 IU/L
BUN [3]: 15.8 mg/dL
CRE [3]: 0.4 mg/dL
Ca [3]: 10.4 mg/dL
Cl [3]: 102.8 meq/L
DBIL [3]: 0.1 mg/dL
GLC [3]: 212.6 mg/dL
IP [3]: 7.1 mg/dL
K [3]: 3.7 meq/L
LDH [3]: 180.8 IU/L
Na [3]: 140.6 meq/L
PL [3]: 161.4 mg/dL
RALB [3]: 3.4 g/dL
TBIL [3]: 0.2 mg/dL
TC [3]: 78 mg/dL
TG [3]: 126.6 mg/dL
TP [3]: 5.9 g/dL
gamma-GTP [3]: 1.2 IU/L
A/G [4]: 1.4
ALP [4]: 568.2 IU/L
ALT [4]: 31.6 IU/L
AST [4]: 54.4 IU/L
BUN [4]: 16.4 mg/dL
CRE [4]: 0.5 mg/dL
Ca [4]: 10.5 mg/dL
Cl [4]: 103.2 meq/L
DBIL [4]: 0.1 mg/dL
GLC [4]: 208 mg/dL
IP [4]: 6.3 mg/dL
K [4]: 3.5 meq/L
LDH [4]: 133.4 IU/L
Na [4]: 140.6 meq/L
PL [4]: 146 mg/dL
RALB [4]: 3.6 g/dL
TBIL [4]: 0.2 mg/dL
TC [4]: 66.4 mg/dL
TG [4]: 137.6 mg/dL
TP [4]: 6.1 g/dL
gamma-GTP [4]: 1.4 IU/L
TERMINAL_BW [5]: 241.1 g
APTT [5]: 17.7 s
Bas [5]: 0%
Eos [5]: 1%
Fbg [5]: 231 mg/dL
Hb [5]: 13.4 g/dL
Ht [5]: 37.9%
Lym [5]: 77.8%
MCH [5]: 21.4 pg
MCHC [5]: 35.5%
MCV [5]: 60.5 fL
Mono [5]: 3.2%
Neu [5]: 15.2%
PT [5]: 12.4 s
Plat [5]: 130.5 x10_4/uL
RBC [5]: 628.2 x10_4/ul
Ret [5]: 4.9%
WBC [5]: 70.5 x10_2/uL
KIDNEY_L [5]: 1.1 g
KIDNEY_R [5]: 1.1 g
KIDNEY_TOTAL [5]: 2.2 g
LIVER [5]: 11.7 g
A/G [5]: 1.5
ALP [5]: 909.6 IU/L
ALT [5]: 35.2 IU/L
AST [5]: 67.8 IU/L
BUN [5]: 14.2 mg/dL
CRE [5]: 0.4 mg/dL
Ca [5]: 10.6 mg/dL
Cl [5]: 100.6 meq/L
DBIL [5]: 0.1 mg/dL
GLC [5]: 209.4 mg/dL
IP [5]: 7.1 mg/dL
K [5]: 3.9 meq/L
LDH [5]: 220.2 IU/L
Na [5]: 139.6 meq/L
PL [5]: 153.8 mg/dL
RALB [5]: 3.3 g/dL
TBIL [5]: 0.1 mg/dL
TC [5]: 75 mg/dL
TG [5]: 110.8 mg/dL
TP [5]: 5.4 g/dL
gamma-GTP [5]: 1 IU/L
TERMINAL_BW [6]: 266.8 g
TERMINAL_BW [7]: 314.4 g
TERMINAL_BW [8]: 380.6 g
APTT [6]: 18.4 s
Bas [6]: 0%
Eos [6]: 1%
Fbg [6]: 217.8 mg/dL
Hb [6]: 13.5 g/dL
Ht [6]: 38.1%
Lym [6]: 82.6%
MCH [6]: 21.6 pg
MCHC [6]: 35.4%
MCV [6]: 61.1 fL
Mono [6]: 2.2%
Neu [6]: 13.2%
PT [6]: 12.8 s
Plat [6]: 124 x10_4/uL
RBC [6]: 624.8 x10_4/ul
Ret [6]: 5.1%
WBC [6]: 120.6 x10_2/uL
APTT [7]: 19.8 s
Bas [7]: 0%
Eos [7]: 0.8%
Fbg [7]: 225.4 mg/dL
Hb [7]: 14.2 g/dL
Ht [7]: 40.7%
Lym [7]: 81.8%
MCH [7]: 19.8 pg
MCHC [7]: 34.8%
MCV [7]: 56.9 fL
Mono [7]: 2.2%
Neu [7]: 14.4%
PT [7]: 12.4 s
Plat [7]: 133.3 x10_4/uL
RBC [7]: 717.2 x10_4/ul
Ret [7]: 3.9%
WBC [7]: 115.5 x10_2/uL
APTT [8]: 20.5 s
Bas [8]: 0%
Eos [8]: 1%
Fbg [8]: 216.2 mg/dL
Hb [8]: 14.7 g/dL
Ht [8]: 42.6%
Lym [8]: 83.8%
MCH [8]: 18.9 pg
MCHC [8]: 34.6%
MCV [8]: 54.7 fL
Mono [8]: 2.4%
Neu [8]: 11.4%
PT [8]: 12.6 s
Plat [8]: 106 x10_4/uL
RBC [8]: 780.2 x10_4/ul
Ret [8]: 3.2%
WBC [8]: 143.7 x10_2/uL
KIDNEY_L [6]: 1.2 g
KIDNEY_R [6]: 1.2 g
KIDNEY_TOTAL [6]: 2.5 g
KIDNEY_L [7]: 1.4 g
KIDNEY_R [7]: 1.4 g
KIDNEY_TOTAL [7]: 2.8 g
KIDNEY_L [8]: 1.7 g
KIDNEY_R [8]: 1.7 g
KIDNEY_TOTAL [8]: 3.3 g
LIVER [6]: 12.6 g
LIVER [7]: 14.5 g
LIVER [8]: 16.2 g
A/G [6]: 1.5
ALP [6]: 995.4 IU/L
ALT [6]: 31.2 IU/L
AST [6]: 63.8 IU/L
BUN [6]: 16 mg/dL
CRE [6]: 0.4 mg/dL
Ca [6]: 10.8 mg/dL
Cl [6]: 102.2 meq/L
DBIL [6]: 0.1 mg/dL
GLC [6]: 187 mg/dL
IP [6]: 7 mg/dL
K [6]: 4.1 meq/L
LDH [6]: 218.8 IU/L
Na [6]: 140.4 meq/L
PL [6]: 142.4 mg/dL
RALB [6]: 3.4 g/dL
TBIL [6]: 0.2 mg/dL
TC [6]: 70.2 mg/dL
TG [6]: 111 mg/dL
TP [6]: 5.7 g/dL
gamma-GTP [6]: 1 IU/L
A/G [7]: 1.4
ALP [7]: 864.2 IU/L
ALT [7]: 34.8 IU/L
AST [7]: 74 IU/L
BUN [7]: 15.4 mg/dL
CRE [7]: 0.4 mg/dL
Ca [7]: 10.3 mg/dL
Cl [7]: 102.2 meq/L
DBIL [7]: 0.084 mg/dL
GLC [7]: 214.8 mg/dL
IP [7]: 6.6 mg/dL
K [7]: 3.5 meq/L
LDH [7]: 208.8 IU/L
Na [7]: 140.8 meq/L
PL [7]: 158.8 mg/dL
RALB [7]: 3.4 g/dL
TBIL [7]: 0.1 mg/dL
TC [7]: 79.2 mg/dL
TG [7]: 110 mg/dL
TP [7]: 6 g/dL
gamma-GTP [7]: 1.6 IU/L
A/G [8]: 1.5
ALP [8]: 573.8 IU/L
ALT [8]: 35.4 IU/L
AST [8]: 63.8 IU/L
BUN [8]: 15 mg/dL
CRE [8]: 0.5 mg/dL
Ca [8]: 10.3 mg/dL
Cl [8]: 104 meq/L
DBIL [8]: 0.1 mg/dL
GLC [8]: 218.6 mg/dL
IP [8]: 6 mg/dL
K [8]: 3.7 meq/L
LDH [8]: 159.4 IU/L
Na [8]: 141.2 meq/L
PL [8]: 155.2 mg/dL
RALB [8]: 3.6 g/dL
TBIL [8]: 0.2 mg/dL
TC [8]: 75.6 mg/dL
TG [8]: 109.8 mg/dL
TP [8]: 6 g/dL
gamma-GTP [8]: 0.8 IU/L
